Drawing on PubChem BioAssay AID493002 (Sanford-Burnham Center for Chemical Genomics, 2010), this text covers IC50 for 107 molecules.

SMILES strings stand for the structures.

In the assay the test system is S. cerevisiae tim23-1 mutant growth, luminescence. The experiment in a line: potency against tim23-1 yeast growth – luminescence, uHTS hits, dose response (AID 493002).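 Note: yeast grown roughly 22 hours at 25 °C before the luminescence read.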
With `COCCNC(=O)/C(C#N)=C/c1ccc(OCc2ccccc2)cc1`, the IC50 (usually the concentration that gives 50% inhibition) was 9.3 µM. As to `O=C(Nc1ncc([N+](=O)[O-])s1)c1ccc2c(c1)OCO2`, the IC50 was 17.6 µM.

For `Cc1ccn(-c2ccc(NC(=O)c3cccs3)cc2)n1`, the 50% inhibitory concentration (IC50) was 7.04 µM. On to `COc1ccc(C(C[N+](=O)[O-])c2c(C)[nH]n(-c3ccccc3)c2=O)cc1` (configuration not stated), for which the IC50 was 7.55 µM. For `CCOc1ccc(N=C(C)C2=C(O)c3ccccc3C2=O)cc1` the value was 11.2 µM; for `N#C/C(=C\c1cc(Cl)cc(Cl)c1O)C(=O)NC1CCCCC1`, 10 µM; for `CCOC(=O)C1=C(CSc2nc(CC)c(C)cc2C#N)OC(N)=C(C#N)C1c1ccc(OC)cc1` (configuration not stated), 17.8 µM. For `Cc1nc(-c2ccc(NC(=O)c3ccccc3)cc2)cs1` the value was 13 µM.

In the case of `O=C(CSc1cccs1)Nc1ccc2ccccc2c1`, the IC50 was 12.2 µM.

In the case of `COc1ccc2c(=O)c3c(=O)n(Cc4ccco4)c(-c4ccc(C)cc4)nc3oc2c1`, the IC50 is 20 µM. For `COc1cc(NC(=O)c2cccs2)ccc1NC(=O)c1ccccc1Cl` the value was 6.75 µM. On to `CC1CCCCN1C(=O)Nc1cccc(Cl)c1` (configuration not stated), for which the IC50 was 14.1 µM.

In the case of `COc1ccc(C(=O)COC(=O)c2cncc(Br)c2)cc1`, the 50% inhibitory concentration (IC50) is 10.1 µM. For `O=C(Nc1ccc(Nc2ccccc2)cc1)c1ccc(Cl)c([N+](=O)[O-])c1` the value was 6.25 µM.

`CC(C)(C)C(=O)c1sc(Nc2ccccc2)nc1N`: the IC50 was 12 µM. For `COc1cc2c3c(c1)C(C)=CC(C)(C)N3C(=O)C2=O` the value was 8.81 µM; for `COc1ccc(-c2nc3ccccc3[nH]2)cc1`, 18 µM; for `CCCc1nc2c(c(=O)c3ccccc3n2C)c(=O)n1C1CCCCCC1`, 9.44 µM.

Turning to `CCCCSC1=C(C#N)C(c2ccccc2C)CC(=O)N1` (configuration not stated), the IC50 was 13.7 µM. `Nc1nc2c(s1)CCc1c-2cnn1-c1ccccc1`: the IC50 is 12.4 µM. Consider `CCCCS/C(N)=N/N=C/c1ccccc1O`, for which the IC50 was 18.2 µM.

As to `Cc1ccc(Nc2cc(C)c3ccc(O)cc3n2)cc1C`, the IC50 was 11.1 µM. For `CC1(C)CC(=O)C=C(c2cccc(Cl)c2O)C1` the value was 8.1 µM; for `CC[C@@]1(c2ccccc2OC)ON(c2ccccc2C(F)(F)F)C1=O`, 5.91 µM; for `O=C1/C(=C/c2ccncc2)SC(=S)N1C1CCCCC1`, 5.72 µM.

Regarding `COc1ccc(C(=O)N/N=C\c2coc3ccccc3c2=O)cc1`, the IC50 was 13.7 µM.

`Cc1[nH]c2ccccc2c1C(=O)/C=C/c1ccccc1`: the IC50 was 9.05 µM. For `CCOc1cc2c3c(c1)C(C)CC(C)(C)N3C(=O)C2=O` (configuration not stated) the value was 14.1 µM; for `COc1cccc(CNn2c(-c3cccc(C)c3)nc3ccccc3c2=O)c1O`, 10.1 µM.

Regarding `CC(C)(C)c1csc(NC(=O)c2ccc(Br)o2)n1`, the IC50 was 9.04 µM. On to `CC(=O)Nc1ccc(S(=O)(=O)N(Cc2cccnc2)Cc2cc3ccc(C)cc3[nH]c2=O)cc1`, for which the IC50 is 23.1 µM. For `CCOc1cc(/C=C2\SC(N3CCCC(C)C3)=NC2=O)ccc1O` (configuration not stated) the value was 28.8 µM. In the case of `Cc1nc2ccc(NC(=O)c3cccs3)cc2c(=O)n1Cc1ccc(Cl)cc1`, the IC50 was 12 µM. Take `Cc1cc(=O)oc2c1c(C(F)(F)F)nn2-c1ccccc1`: the concentration for half-maximal inhibition (IC50) is 7.85 µM.

`COc1cc(C2CC(c3cccs3)=NN2C(=O)CCl)ccc1OC(F)F` (configuration not stated): the IC50 was 21.9 µM. For `CC(C)CN(C(=O)c1ccc2c(c1)OCCO2)c1c(N)n(Cc2ccccc2)c(=O)[nH]c1=O` the value was 14.2 µM; for `COc1ccc(OC)c(-c2csc(NC(=O)Cc3ccc(F)cc3)n2)c1`, 9.63 µM; for `COc1ccc2oc(/C=C/N(C)C)c(C(=O)c3ccc(Cl)cc3)c2c1`, 15 µM. As for `CC(/C=N/NC(=O)c1cccs1)=C\c1ccco1`, the IC50 is 24.3 µM.

For the molecule `COc1ccc(C(=O)N/N=C/c2ccc(OC)c(COc3ccc(F)cc3F)c2)cc1`, the half-inhibitory concentration (IC50) is 24.9 µM. For `C=CCNC(=O)c1ccc2c3n(nc2c1)-c1ccc(Cl)cc1CO3` the value was 6.9 µM. Turning to `Oc1ccccc1-c1cc(-c2ccc(F)cc2)n[nH]1`, the IC50 was 13.5 µM.

With `CCSc1ncc(/C=N/Nc2ccc(Cl)cc2)n1C`, the IC50 is 5.9 µM. As for `O=c1c(O)c(-c2ccccc2)oc2cc(O)cc(O)c12`, the IC50 is 8.56 µM. For `C=C1CCc2c([nH]c3ccc(OCC(C)C)cc23)C1=O` the value was 3.33 µM; for `Cc1ccc(NCc2nc3ccccc3n2CCOc2ccccc2)cc1`, 10.4 µM. For `CC1CCN(c2ccc(-c3cccs3)nn2)CC1` the value was 6.21 µM; for `C/C(=N\Nc1cc(N2CCCCC2)nc(C)n1)c1ccc(Br)cc1`, 14.2 µM. Take `CCOC(=O)c1ccc(NC(=O)/C=C/c2cccs2)cc1`: the IC50 was 26.6 µM. For `COc1cccc(C(=O)Nc2ccccc2)c1` the value was 9.33 µM; for `Cc1ccc2c(c1)C(=O)C(=O)N2c1ccc(Cl)cc1`, 11.7 µM. `NS(=O)(=O)c1ccc(N=Cc2c(O)n(C3CCCCC3)c(=O)n(C3CCCCC3)c2=O)cc1`: the IC50 was 14.4 µM. Turning to `O=c1oc(-c2ccccc2F)nc2c1cnn2-c1ccccc1`, the IC50 is 7.71 µM. With `Cn1c(/C(C#N)=C/c2ccncc2)nc2ccccc21`, the IC50 was 16.3 µM. For `O=C1c2ccccc2-c2n[nH]c3cccc1c23`, the half-inhibitory concentration (IC50) was 6.31 µM. For `COc1ccc(C2=NNC(c3cccs3)=Nc3ccc(OC)cc32)cc1` the value was 11.1 µM. As to `Oc1ccc(Oc2ccc(Oc3ccc(O)cc3)cc2)cc1`, the IC50 was 6.42 µM. Take `Cc1ccccc1[C@@]1(C)ON(c2ccccc2C(F)(F)F)C1=O`: the IC50 is 7.04 µM. As to `O=C(O)c1ccc(N/N=C/c2ccc(-c3ccc(Br)cc3)o2)cc1`, the IC50 is 16.2 µM. Regarding `CCNc1nc(N)c(C(=O)C23CC4CC(CC(C4)C2)C3)s1`, the IC50 was 12.4 µM. As to `CCOC(=O)c1cccc(OC(=O)CCNC(=O)c2ccc(Cl)cc2)c1`, the IC50 is 13.1 µM.

For `CN1CCc2nc3sc(C(=O)C45CC6CC(CC(C6)C4)C5)c(N)c3cc2C1`, the IC50 is 2.43 µM. For `CN(C)c1c2ccccc2nc2c(F)c(F)c(F)c(F)c12` the value was 16.6 µM; for `CCOC(=O)c1c(N)sc(C(=O)Nc2ccccc2)c1C`, 4.11 µM; for `O=C1NC(=S)SC1=C1CCCCCC1`, 7.78 µM. As to `Cn1cccc1-c1nc2ccc(NC(=O)c3cccs3)cc2[nH]1`, the IC50 is 10.8 µM. For `Cc1cccc(NC(=O)c2cc3ccccc3o2)c1` the value was 13 µM; for `COc1ccc(/C=N/NC(=O)c2cccs2)c2ccccc12`, 13.7 µM; for `COC(=O)c1ccc(NC(=O)CSc2nc(=O)n3cccc(C)c3n2)cc1`, 22.7 µM.

Take `Cc1ccc(-c2nnc(NC3CCCC3)s2)cc1`: the IC50 was 26.6 µM. Consider `Cn1nc(C(F)(F)F)c2cc(NC(=O)OCC(C)(C)C)sc21`, for which the IC50 is 28.2 µM. For `Cc1ccc(C(=O)C(C)OC(=O)c2cc3cc([N+](=O)[O-])ccc3oc2=O)cc1` (configuration not stated) the value was 14.9 µM. For `Brc1ccc(OCc2nnnn2-c2ccccc2)cc1` the value was 11.3 µM; for `Cc1ccccc1C(=O)Oc1cccc2c(O)cccc12`, 8.53 µM; for `COc1ccc2c(c1)OC[C@H]1[C@H]2N2C(=O)c3cc(C)ccc3NC(=O)[C@@]2(C)[C@H]1c1ccccc1`, 13.1 µM. In the case of `O=S(=O)(Nc1cccc(-c2nc3cccnc3s2)c1)c1ccc2c(c1)OCCO2`, the IC50 is 11.6 µM.

On to `COc1ccc(CCCC(=O)N/N=C/c2ccc(C)cc2)cc1`, for which the IC50 was 16.7 µM. In the case of `Nc1ccc(N=Nc2ccccc2O)c(N)c1`, the IC50 was 15.3 µM. Turning to `COC(=O)c1ccc(C(=O)OC)c(NC(=O)CSc2cccc[n+]2[O-])c1`, the IC50 is 4.4 µM.

Turning to `O=C(c1ccc(-c2nc3ccccc3s2)s1)N1CCOCC1`, the IC50 was 19.2 µM. In the case of `Cc1cc(NC(=O)c2ccco2)sc1C`, the 50% inhibitory concentration (IC50) was 18 µM.

Consider `COc1ccc(C(=O)CC(=O)c2ccccc2O)cc1`, for which the IC50 is 15.1 µM. For `COc1ccc2c(c1)-c1nc(NC(=O)c3cccs3)sc1CC2` the value was 21.7 µM.

Turning to `Cc1nc(Nc2ccccc2)sc1C(=O)Nc1ccccc1`, the IC50 is 14.6 µM.

On to `C/C(=N\Nc1nc2ccccc2s1)c1cccs1`, for which the IC50 is 9.27 µM. For `C=CCn1c(SCc2cc(=O)n3ccsc3n2)nc2cc(Cl)ccc2c1=O` the value was 6.15 µM; for `N#C/C(N)=C(/C#N)N=Cc1cccc(Cl)c1`, 8.99 µM. Take `COc1ccc(C(=O)N/N=C\c2coc3ccc(Cl)cc3c2=O)cc1`: the IC50 was 8.27 µM. For `Cc1occc1C(=O)N/N=C/C(Br)=C/c1ccccc1` the value was 9.06 µM. In the case of `O=C(NC1CCCCC1)c1c(O)nc2sccn2c1=O`, the IC50 was 16.4 µM. As to `O=C(Nc1cn(-c2ccccc2)nc1-c1cccs1)c1ccco1`, the half-maximal inhibitory concentration (IC50) is 29 µM. Regarding `CCN(CC)c1ccc2c(C)c(-c3ccc(N)cc3)c(=O)oc2c1`, the IC50 is 13.9 µM. For `CC(C)CCN1C(=O)c2cccc3c(N)ccc(c23)C1=O` the value was 9.07 µM; for `Cc1ccc(Nc2nc(-c3cccnc3)nc3ccccc23)cc1`, 5.21 µM. For `N#C/C(C(N)=O)=c1/ccc2c(c1)N1C3=C(CCCC3)CC3CCCCC31N=2` (configuration not stated) the value was 7.43 µM. For `CC1(C)CC(=O)C=C(c2ccc(I)cc2)C1` the value was 14.8 µM; for `O=S1(=O)N[C@@H](Cc2ccccc2)COc2cc(Br)ccc21`, 18.4 µM.

For the molecule `CCC(C)NC(=O)c1c(N)n(CCCOC)c2nc3ccccc3nc12` (configuration not stated), the IC50 is 14.1 µM. For `COc1ccc(N2CCC(CNC(=S)Nc3ccc(C)cc3C)C2)cc1` (configuration not stated) the value was 7.54 µM; for `Nc1nc(Nc2ccccc2)sc1C(=O)c1ccccc1`, 21 µM; for `O=C(Nc1nc(-c2cccs2)c(-c2ccccc2)s1)c1ccco1`, 11.5 µM.

As for `O=C(Nc1ccc(-c2cn3ccccc3n2)cc1)c1cccs1`, the IC50 was 2.92 µM. Consider `CC1(C)CC(n2c(NCCO)nc3c(c2=O)C2(CCCC2)Cc2ccccc2-3)CCO1` (configuration not stated), for which the IC50 was 8.62 µM. For `CN(C)/C=C1/C=C(c2ccccc2)OC1=O` the value was 12 µM. For `COc1cccc(NC(=O)c2ccccc2)c1` the value was 11.3 µM. For `O=C(N/N=C/c1ccco1)c1cc2ccccc2o1` the value was 8.47 µM.

In the case of `Cc1csc2nc(O)c(C(=O)NCCC3=CCCCC3)c(=O)n12`, the IC50 is 4.88 µM.
